The species named for one data set is Mus musculus. Briefly: animal or person. Conditions: Kunming, Ear, po, read-out: INH.
Data set [1] has as its target T1, Tyrosinase (Agaricus bisporus) (UniProt O42713).
T1 sequence (whole entry): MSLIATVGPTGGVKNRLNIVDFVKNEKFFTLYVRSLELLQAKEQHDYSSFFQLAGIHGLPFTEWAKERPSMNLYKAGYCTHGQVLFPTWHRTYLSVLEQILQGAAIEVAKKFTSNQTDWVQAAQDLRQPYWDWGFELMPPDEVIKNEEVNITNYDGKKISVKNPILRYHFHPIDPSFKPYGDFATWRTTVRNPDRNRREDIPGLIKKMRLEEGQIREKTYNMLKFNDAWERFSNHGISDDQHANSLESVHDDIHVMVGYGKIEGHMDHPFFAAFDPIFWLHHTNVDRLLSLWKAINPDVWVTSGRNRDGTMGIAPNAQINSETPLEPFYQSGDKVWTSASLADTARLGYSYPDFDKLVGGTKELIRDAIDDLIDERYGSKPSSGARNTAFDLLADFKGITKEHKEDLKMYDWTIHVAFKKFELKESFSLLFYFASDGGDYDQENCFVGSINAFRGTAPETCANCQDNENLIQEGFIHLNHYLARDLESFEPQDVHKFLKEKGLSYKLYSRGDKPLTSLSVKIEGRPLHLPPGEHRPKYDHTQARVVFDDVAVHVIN
Put plainly: Competitive inhibition of diphenolase activity of mushroom tyrosinase assessed as L-DOPA oxidation at 15 to 45 uM by Lineweaver-Burk plot analysis.

Data set [2] has as its target T1, Tyrosinase (Agaricus bisporus). Put plainly: Inhibition of diphenolase activity of mushroom tyrosinase using L-DOPA as substrate assessed as formation of the DOPA chrome at 100 uM preincubated for 10 mins followed by substrate addition measured for 1 min by spectrophotometric analysis relative to control.
Data set [3] shares this target. Put plainly: Reversible inhibition of diphenolase activity of mushroom tyrosinase assessed as L-DOPA oxidation at 10 to 50 uM.
A further data set concerns the target T2, Tyrosinase (Agaricus bisporus, UniProt O42713).
T2 sequence (O42713 whole entry): T1 sequence (whole entry)

Data set [4] addresses T1, Tyrosinase (Agaricus bisporus). Briefly: […] inhibition of diphenolase activity of mushroom tyrosinase assessed as L-DOPA oxidation at 10 to 50 uM.
Data set [5] can be described thus: Drug degradation at 20 degC measured for 15 days. The format is physicochemical. Conditions: read-out: Drug degradation.

Activity calls are given as the source filed them. The calls are words filed in the database; no cut-off is given here.

Description for Mus musculus: Antiinflammatory activity in Kunming mouse assessed as inhibition of croton oil-induced ear swelling at 0.105 mmol/kg, ig administered for 3 days followed by croton oil challenge at 1 hrs post last dose measured after 4 hrs relative to control

For the compound `CC(=O)Oc1cccc2c1C(=O)c1c(OC(C)=O)cc(C(=O)O)cc1C2=O` [DIACEREIN], in the data set listed under Mus musculus, the inhibition in vivo at 105 µmol/kg was 39.1%.
Consider `CCCCOc1cccc2c1C(=O)c1c(OCCCC)cc(CO)cc1C2=O`, for which the inhibition entry in data set [1] and in data set [3] was “Active” each time. In addition, the inhibition in data set [2] was found to be 73.6%. Further, the IC50 against Tyrosinase came to 32.8 µM.
`C=CCOc1cccc2c1C(=O)c1c(OCC=C)cc(CO)cc1C2=O`: in data set [2], the inhibition came to 58.6%. The compound also came in with an IC50 against Tyrosinase of 91 µM.
Consider `C=CCOc1cccc2c1C(=O)c1c(OCC=C)cc(/C=N/O)cc1C2=O`, for which, in data set [2], the inhibition amounted to 57%. Moreover, on Tyrosinase, half-maximal inhibition (IC50) was put at 83.2 µM.
Turning to `CCOCOc1cccc2c1C(=O)c1c(OCOCC)cc(C=O)cc1C2=O`, in data set [2], the inhibition result was “inactive”.
For the compound `CCOCOc1cccc2c1C(=O)c1c(OCOCC)cc(CO)cc1C2=O`, the inhibition in data set [2] was 7.45%. This compound also registered an IC50 at Tyrosinase above 200 µM.
With `CO/N=C/c1cc(OC)c2c(c1)C(=O)c1cccc(OC)c1C2=O`, the inhibition result in data set [2] is “inactive”.
As to `C=CCOc1cccc2c1C(=O)c1c(OCC=C)cc(C=O)cc1C2=O`, the inhibition in data set [2] was determined as 55.4%. On Tyrosinase, this compound yielded an IC50 of 92.4 µM.
With `O=C1c2cccc(O)c2C(=O)c2c(O)cc(/C=N/OCc3ccccc3)cc21`, the inhibition result in data set [2] is “inactive”.
Take `C=CCOc1cccc2c1C(=O)c1c(OCC=C)cc(/C=N/OC)cc1C2=O`: the inhibition result in data set [2] was “inactive”.
Still for that read-out and setting: as for `O=C1c2cccc(O)c2C(=O)c2c(O)cc(/C=N/O)cc21`, the entry is “inactive”.
Regarding `CCOCOc1cccc2c1C(=O)c1c(OCOCC)cc(/C=N/NC(N)=S)cc1C2=O`, the inhibition in data set [2] came to 65.3%. In addition, half-maximal inhibition at Tyrosinase (IC50) required 58.1 µM.
Taken in the same sequence, the figures for `CCO/N=C/c1cc(O)c2c(c1)C(=O)c1cccc(O)c1C2=O` were 18.3% and above 200 µM.
For the compound `CO/N=C/c1cc(O)c2c(c1)C(=O)c1cccc(O)c1C2=O`, the inhibition in data set [2] was 12.9%. On Tyrosinase, the IC50 is above 200 µM.
Turning to `COc1cccc2c1C(=O)c1c(OC)cc(/C=N/NC(N)=S)cc1C2=O`, the inhibition in data set [2] turned out to be 76.4%. The compound also returned a 50% inhibitory concentration (IC50) against Tyrosinase of 28 µM.
Take `NC(=S)N/N=C/c1cc(O)c2c(c1)C(=O)c1cccc(O)c1C2=O`: the inhibition entry in data set [4] was “Active”. For the same compound, in data set [2], the inhibition stood at 78.6%. Moreover, the IC50 on Tyrosinase stood at 24.5 µM.
On to `C=CCOc1cccc2c1C(=O)c1c(OCC=C)cc(/C=N/OCC)cc1C2=O`, for which the inhibition result in data set [2] is “inactive”.
Regarding `COc1cccc2c1C(=O)c1c(OC)cc(C=O)cc1C2=O`, the inhibition result in data set [2] is “inactive”. In addition, in the data set filed under Mus musculus, the inhibition in vivo at 105 µmol/kg was determined as 42.6%.
With `O=Cc1cc(O)c2c(c1)C(=O)c1cccc(O)c1C2=O`, in data set [2], the inhibition is 49.4%. On Tyrosinase, this compound showed a 50% inhibitory concentration (IC50) of 109 µM. Besides, the inhibition in vivo at 105 µmol/kg in the data set filed under Mus musculus came out at 50.6%.
With `COc1cccc2c1C(=O)c1c(OC)cc(CO)cc1C2=O`, in data set [2], the inhibition is 9.86%. This compound also yielded a concentration for half-maximal inhibition (IC50) on Tyrosinase above 200 µM. For the same compound, the inhibition in vivo at 105 µmol/kg in the data set filed under Mus musculus amounted to 35.2%.
For `CCO/N=C/c1cc(OC)c2c(c1)C(=O)c1cccc(OC)c1C2=O`, the inhibition entry in data set [2] was “inactive”.
With `OC[C@H]1O[C@@H](Oc2ccc(O)cc2)[C@H](O)[C@@H](O)[C@@H]1O` [ARBUTIN], the degraded at 360 h in data set [5] amounted to 10%.

For orientation: inhibition means the percentage by which the read-out fell short of the control. Broadly, the IC50 is the concentration that inhibits the measured activity by half. Read a high IC50 as a need for much substance.

The values above are taken from ChEMBL document CHEMBL3632534, “Design and synthesis of aloe-emodin derivatives as potent anti-tyrosinase, antibacterial and anti-inflammatory agents” (Bioorg Med Chem Lett, 2015).
